The source of these data is publication PMC11642070, “OCTN1 (SLC22A4) as a Target of Heavy Metals: Its Possible Role in Microplastic Threats” (International Journal of Molecular Sciences, 2024).

Each structure is given as a SMILES string. Changes are numbered by the printed parent chain.

The conditions of series [1]: according to ATSDR; ref https://www.atsdr.cdc.gov/toxprofiles; cited from earlier work.
The next series addresses T1, human OCTN1 (Homo sapiens, UniProt Q9H015).
T1 construct: made in house; host or cells: E. coli Rosetta(DE3)pLysS
T1 sequence (Q9H015 1-551): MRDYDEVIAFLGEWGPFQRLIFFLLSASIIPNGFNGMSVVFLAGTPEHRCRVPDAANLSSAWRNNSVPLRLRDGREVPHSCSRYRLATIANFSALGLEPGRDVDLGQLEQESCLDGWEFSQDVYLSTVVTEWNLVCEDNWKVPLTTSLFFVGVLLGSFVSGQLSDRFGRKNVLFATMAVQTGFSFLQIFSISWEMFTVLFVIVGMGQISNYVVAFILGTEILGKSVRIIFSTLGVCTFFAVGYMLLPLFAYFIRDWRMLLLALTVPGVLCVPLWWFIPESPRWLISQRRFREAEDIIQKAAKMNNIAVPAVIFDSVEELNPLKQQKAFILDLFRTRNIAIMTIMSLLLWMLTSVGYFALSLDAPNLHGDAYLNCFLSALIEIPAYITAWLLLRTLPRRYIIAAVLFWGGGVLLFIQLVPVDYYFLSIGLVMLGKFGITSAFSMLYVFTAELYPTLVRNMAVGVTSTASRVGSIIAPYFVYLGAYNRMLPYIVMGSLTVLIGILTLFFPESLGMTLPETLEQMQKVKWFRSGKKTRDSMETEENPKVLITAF
The format is biochemical. The note with it: 60 min; for IC50: OCTN1 WT proteoliposomes, 0.1 mM [14C]-TEA, read-out: IC50 (µM) on [14C]-TEA uptake. The procedure: After desalting, the protein was reconstituted in liposomes. The composition of the initial mixture used for reconstitution was as follows: 50 µg of protein (or desalt buffer in liposomes without the incorporated protein), 80 µL of 10% C12E8, 120 µL of 10% egg yolk phospholipids with 25% cholesterol in the form of sonicated liposomes, 16 mM ATP disodium salt, and 5 mM BisTris/HCl (pH 7.5) in a final volume of 700 µL. The purified OCTN1 (WT or C-less mutant) was inserted in the liposomal membrane using the batch-wise technique. This procedure used 0.5 g of Amberlite XAD-4 to remove the detergent from mixed micelles consisting of proteins, phospholipids and detergent at 23 °C for 40 min at 1200 rpm, as previously described.
(§1) Proteoliposomes and liposomes (600 μL) were applied onto a Sephadex G-75 (Merck Life Science, Milan, Italy) column (0.7 cm diameter × 15 cm height) pre-equilibrated with 5 mM BIS-Tris/HCl (pH 8.0) and eluted with 600 μL of the same buffer. Samples of 100 μL each were prepared from the 600 μL pool. The transport was initiated by [^14C]-TEA or [^3H]-Ach at the concentration of 0.1 mM to the proteoliposome samples and stopped after 60 min according to the stop-inhibitor method. In the blank samples, the inhibitor (1 mM Hemicholinium-3) was added at time zero. After the transport time, each sample was applied onto a Sephadex G-75 column (0.6 cm diameter × 8 cm height) and pre-equilibrated with 50 mM NaCl to remove the radioactivity not taken up. Proteoliposomes were eluted with 50 mM NaCl (1 mL), added to 3 mL Pico-Fluor Plus, vortexed, and counted. The radioactivity in the blank samples was used to subtract background radioactivity from the protein-associated one.
All experimental data were derived from the mean of three independent experiments, and results were expressed as means ± SD. IC50 values were derived from data fitting the IC50 equation using Grafit v 5.0.13 software (Erithacus Software (v 5.0.13), East Grinstead, UK).

Another series addresses T2, Cys-less OCTN1 (Homo sapiens, UniProt Q9H015, C113A/C136A/C236A/C270A/C374A/C50A/C81A).
T2 construct: made in house; host or cells: E. coli Rosetta(DE3)pLysS
T2 sequence (Q9H015 1-551 C50A/C81A/C113A/C136A/C236A/C270A/C374A): T1 sequence (Q9H015 1-551) with C50A, C81A, C113A, C136A, C236A, C270A, C374A
The series can be described thus: [14C]-TEA uptake by Cys-less OCTN1 mutant reconstituted in proteoliposomes. The note with it: 100 µM metal (250 µM CrCl2), 0.1 mM [14C]-TEA, 60 min. Format: biochemical. The procedure:
The over-expression of OCTN1 wild type (WT) and C-less mutant proteins, as previously described in [17], has been performed in E. coli Rosetta(DE3)pLysS, as described in [60, 61].
After desalting, the protein was reconstituted in liposomes. The composition of the initial mixture used for reconstitution was as follows: 50 µg of protein (or desalt buffer in liposomes without the incorporated protein), 80 µL of 10% C12E8, 120 µL of 10% egg yolk phospholipids with 25% cholesterol in the form of sonicated liposomes, 16 mM ATP disodium salt, and 5 mM BisTris/HCl (pH 7.5) in a final volume of 700 µL. The purified OCTN1 (WT or C-less mutant) was inserted in the liposomal membrane using the batch-wise technique. […]
as §1, with “Samples of 100 μL each were prepared from the 600 μL pool. The transport was initiated by [^14C]-TEA or [^3H]-Ach at the concentration of 0.1 mM to the proteoliposome samples and stopped after 60 min according to the stop-inhibitor method. In the blank samples, the inhibitor (1 mM Hemicholinium-3) was added at time zero.” left out

With `[Cd]` [Cadmium], the “Level of Toxicity” value in series [1] was “+++”.
With `[Cl][Cd][Cl]` [CdCl2, Cadmium chloride], at human OCTN1, the IC50 (usually the concentration at which inhibition is half-maximal) worked out at 56 ± 4 µM.
For `[Cr]` [Chromium], in series [1], the “Level of Toxicity” value is “+++”.
Turning to `[Cl][Cr][Cl]` [CrCl2, Chromium (II) chloride], on human OCTN1 (100 µM metal (250 µM CrCl2), 5 mM DTE or Cys), the “Effect of DTE and cysteine on the inhibition of [14C]-TEA transport by heavy metals” value was “only exception”. At human OCTN1, the IC50 stood at 170 ± 15 µM. For the same compound, at Cys-less OCTN1, the “Inhibition of [14C]-TEA transport by Cys-less OCTN1” value was “only exception”.
As for `[Cl][Hg][Cl]` [HgCl2, Mercury (II) chloride], the IC50 on human OCTN1 was found to be 121 ± 7 µM.
On the same count and under the same terms, to `O=[N+]([O-])[O-].O=[N+]([O-])[O-].[Pb+2]` [Pb(NO3)2, Lead nitrate] belongs 90 ± 19 µM.
For `[Zn]` [Zinc], in series [1], the “Level of Toxicity” value was “+”.
As to `[Cl-].[Cl-].[Zn+2]` [ZnCl2, Zinc chloride], the IC50 at human OCTN1 was 57 ± 17 µM.
